What was measured:
Assay type in all cases: in vivo
[1] = tested on: barley, winter (winter barley, Hordeum vulgare); assay: Test D controlled growth environment herbicide test, pre- and postemergence
Method in brief: (§1)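 Species sown in silt loam and sprayed preemergence, or grown in peat-based medium to 2–18 cm (1- to 4-leaf stage) and sprayed postemergence, with compounds in non-phytotoxic solvent plus surfactant. Visual injury scored versus controls after 14–21 d in a controlled environment, 0 (no effect) to 100 (complete control).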

[2] = tested on: blackgrass (Alopecurus myosuroides); assay: as above
Method in brief: as §1

[3] = tested on: chamomile (scentless chamomile, Matricaria inodora); assay: as above
Method in brief: as §1

[4] = tested on: deadnettle (henbit deadnettle, Lamium amplexicaule); assay: as above
Method in brief: as §1

[5] = tested on: field poppy (Papaver rhoeas); assay: as above
Method in brief: as §1

[6] = tested on: foxtail, green (green foxtail, Setaria viridis); assay: as above
Method in brief: as §1

[7] = tested on: lambsquarters (Chenopodium album); assay: as above
Method in brief: as §1

[8] = tested on: mustard, wild (wild mustard, Sinapis arvensis); assay: as above
Method in brief: as §1

[9] = tested on: radish, wild (wild radish, Raphanus raphanistrum); assay: as above
Method in brief: as §1

[10] = tested on: windgrass (Apera spica-venti); assay: as above
Method in brief: as §1

[11] = tested on: waterhemp_RES1 (ALS & Triazine resistant common waterhemp, Amaranthus rudis); assay: Test E greenhouse herbicide test, postemergence
Method in brief: (§2)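 Visual injury scored 0 (no effect) to 100 (complete control) versus untreated plants, 14 to 21 d after treatment in the greenhouse. Plants were treated postemergence at 1- to 4-leaf stage, 2–18 cm height, in peat-moss/vermiculite medium.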

[12] = tested on: waterhemp_RES2 (ALS & HPPD resistant common waterhemp, Amaranthus rudis); assay: Test E greenhouse herbicide test, postemergence
Method in brief: as §2

[13] = Postemergence, 31 g ai/ha, scale 0 to 100 (0 no effect, 100 complete control)
[14] = Postemergence, 125 g ai/ha, visual rating on scale 0 (no effect) to 100 (complete control), 14 to 21 d
[15] = Postemergence, 250 g ai/ha, scale 0 to 100 (0 no effect, 100 complete control)
[16] = Preemergence, 62 g ai/ha, scale 0 to 100 (0 no effect, 100 complete control)
[17] = Preemergence, 125 g ai/ha, scale 0 to 100 (0 no effect, 100 complete control)
[18] = Preemergence, 250 g ai/ha, scale 0 to 100, 0 no effect, 100 complete control
[19] = postemergence, 62 g ai/ha, scale 0 to 100, 0 no effect, 100 complete control
[20] = 16 g ai/ha, visual, scale 0 no effect to 100 complete control
[21] = 31 g ai/ha, visual, scale 0 no effect to 100 complete control
[22] = 62 g ai/ha, scale 0 to 100 (0 no effect, 100 complete control)
[23] = 125 g ai/ha, scale 0 to 100 (0 no effect, 100 complete control)
[24] = 250 g ai/ha, scale 0 to 100 (0 no effect, 100 complete control)

Question: Which results are given for `Cc1cc(C)c2sc(C)c(-c3c(O)c(C)nn(C)c3=O)c2c1` [Compound 2, 5-hydroxy-2,6-dimethyl-4-(2,5,7-trimethylbenzo[b]thien-3-yl)-3(2H)-pyridazinone]?
Answer: Plant response rating, Barley, Winter [1, 13]: 10; Plant response rating, Barley, Winter [1, 14]: 15; Plant response rating, Barley, Winter [1, 15]: 10; Plant response rating (scale of 0 to 100), Barley, Winter ([1]; Preemergence, 31 g ai/ha): 0; Plant response rating, Barley, Winter [1, 16]: 0; Plant response rating, Barley, Winter [1, 17]: 0; Barley, Winter plant response rating [1, 18]: 0; Plant response rating, Barley, Winter [1, 19]: 10; Blackgrass plant response rating [2, 13]: 65; Plant response rating, Blackgrass [2, 14]: 80; Plant response rating, Blackgrass [2, 15]: 90; Plant response rating (scale of 0 to 100), Blackgrass ([2]; Preemergence, 31 g ai/ha): 65; Plant response rating, Blackgrass [2, 16]: 75; Plant response rating, Blackgrass [2, 17]: 85; Blackgrass plant response rating [2, 18]: 90; Plant response rating, Blackgrass [2, 19]: 70; Chamomile plant response rating [3, 13]: 70; Plant response rating, Chamomile [3, 14]: 90; Plant response rating, Chamomile [3, 15]: 100; Plant response rating (scale of 0 to 100), Chamomile ([3]; Preemergence, 31 g ai/ha): 80; Plant response rating, Chamomile [3, 16]: 100; Plant response rating, Chamomile [3, 17]: 95; Plant response rating, Chamomile [3, 18]: 100; Plant response rating, Chamomile [3, 19]: 80; Deadnettle plant response rating [4, 13]: 60; Plant response rating, Deadnettle [4, 14]: 60; Plant response rating, Deadnettle [4, 15]: 60; Plant response rating (scale of 0 to 100), Deadnettle ([4]; Preemergence, 31 g ai/ha): 0; Plant response rating, Deadnettle [4, 16]: 0; Plant response rating, Deadnettle [4, 17]: 0; Plant response rating, Deadnettle [4, 18]: 55; Plant response rating, Deadnettle [4, 19]: 60; Field Poppy plant response rating [5, 13]: 75; Plant response rating, Field Poppy [5, 14]: 100; Plant response rating, Field Poppy [5, 15]: 100; Plant response rating (scale of 0 to 100), Field Poppy ([5]; Preemergence, 31 g ai/ha): 95; Plant response rating, Field Poppy [5, 16]: 95; Plant response rating, Field Poppy [5, 17]: 95; Plant response rating, Field Poppy [5, 18]: 100; Plant response rating, Field Poppy [5, 19]: 95; Foxtail, Green plant response rating [6, 13]: 70; Plant response rating, Foxtail, Green [6, 14]: 95; Plant response rating, Foxtail, Green [6, 15]: 100; Plant response rating (scale of 0 to 100), Foxtail, Green ([6]; Preemergence, 31 g ai/ha): 65; Plant response rating, Foxtail, Green [6, 16]: 100; Plant response rating, Foxtail, Green [6, 17]: 100; Plant response rating, Foxtail, Green [6, 18]: 100; Plant response rating, Foxtail, Green [6, 19]: 80; Lambsquarters plant response rating [7, 13]: 90; Plant response rating, Lambsquarters [7, 14]: 95; Plant response rating, Lambsquarters [7, 15]: 100; Plant response rating (scale of 0 to 100), Lambsquarters ([7]; Preemergence, 31 g ai/ha): 15; Plant response rating, Lambsquarters [7, 16]: 60; Plant response rating, Lambsquarters [7, 17]: 100; Plant response rating, Lambsquarters [7, 18]: 100; Plant response rating, Lambsquarters [7, 19]: 90; Mustard, Wild plant response rating [8, 13]: 25; Plant response rating, Mustard, Wild [8, 14]: 40; Plant response rating, Mustard, Wild [8, 15]: 55; Plant response rating (scale of 0 to 100), Mustard, Wild ([8]; Preemergence, 31 g ai/ha): 0; Plant response rating, Mustard, Wild [8, 16]: 0; Plant response rating, Mustard, Wild [8, 17]: 5; Plant response rating, Mustard, Wild [8, 18]: 40; Plant response rating, Mustard, Wild [8, 19]: 35; Radish, Wild plant response rating [9, 13]: 25; Plant response rating, Radish, Wild [9, 14]: 65; Plant response rating, Radish, Wild [9, 15]: 60; Plant response rating (scale of 0 to 100), Radish, Wild ([9]; Preemergence, 31 g ai/ha): 0; Plant response rating, Radish, Wild [9, 16]: 5; Plant response rating, Radish, Wild [9, 17]: 15; Plant response rating, Radish, Wild [9, 18]: 100; Plant response rating, Radish, Wild [9, 19]: 55; Windgrass plant response rating [10, 13]: 10; Plant response rating, Windgrass [10, 14]: 55; Plant response rating, Windgrass [10, 15]: 70; Plant response rating (scale of 0 to 100), Windgrass ([10]; Preemergence, 31 g ai/ha): 60; Plant response rating, Windgrass [10, 16]: 75; Plant response rating, Windgrass [10, 17]: 95; Plant response rating, Windgrass [10, 18]: 100; Plant response rating, Windgrass [10, 19]: 25; Plant response rating, Waterhemp_RES1 [11, 20]: 65; Plant response rating, Waterhemp_RES1 [11, 21]: 70; Plant response rating, Waterhemp_RES1 [11, 22]: 70; Plant response rating, Waterhemp_RES1 [11, 23]: 70; Plant response rating, Waterhemp_RES1 [11, 24]: 100; Plant response rating, Waterhemp_RES2 [12, 20]: 0; Plant response rating, Waterhemp_RES2 [12, 21]: 0; Plant response rating, Waterhemp_RES2 [12, 22]: 5; Plant response rating, Waterhemp_RES2 [12, 23]: 5; Plant response rating, Waterhemp_RES2 [12, 24]: 60

From patent US10597388B2, “Pyridazinone herbicides” (FMC CORPORATION, priority 2014, dated 2020)
